Test results taken from patent US10214519B2, “Phosphatidylinositol 3-kinase inhibitors” (Gilead Sciences, Inc., priority 2016, dated 2019).
pIC50: −log10 of the molar value.

What follows are compounds tested against PI3Kβ (Homo sapiens (Human), UniProt P42338) (assay: PI3K isoform TR-FRET enzymatic assay (PI3Kβ)). Conditions: 2× Km ATP, 30 minutes at 25° C.
Type: biochemical
Description: The compounds of formula (I) were characterized for their enzymatic activity against the PI3K isoforms. The activities were measured using a time-resolved fluorescence resonance energy transfer (TR-FRET) assay. TR-FRET monitored the formation of 3,4,5-inositol triphosphate molecule that competed with fluorescently labeled PIP3 for binding to the GRP-1 pleckstrin homology domain protein.
Class I PI3K isoforms were expressed and purified as heterodimeric recombinant proteins. All assay reagents and buffers for the TR-FRET assay were purchased from Millipore. […] The compounds were added to the assay solution and incubated for 30 minutes at 25° C. The reactions were terminated with a final concentration of 10 mM EDTA, 10 nM labeled-PIP3, and 35 nM Europium labeled GRP-1 detector protein before reading TR-FRET on an Envision plate reader (Ex: 340 nm; Em: 615/665 nm; 100 μs delay and 500 μs read window).
The results were normalized based on positive (1 μM wortmanin) and negative (DMSO) controls, and the IC50 values for PI3K α, β, δ, and γ were calculated from the fit of the dose-response curves to a four-parameter equation.

Sequence of PI3Kβ (P42338 whole entry, canonical isoform): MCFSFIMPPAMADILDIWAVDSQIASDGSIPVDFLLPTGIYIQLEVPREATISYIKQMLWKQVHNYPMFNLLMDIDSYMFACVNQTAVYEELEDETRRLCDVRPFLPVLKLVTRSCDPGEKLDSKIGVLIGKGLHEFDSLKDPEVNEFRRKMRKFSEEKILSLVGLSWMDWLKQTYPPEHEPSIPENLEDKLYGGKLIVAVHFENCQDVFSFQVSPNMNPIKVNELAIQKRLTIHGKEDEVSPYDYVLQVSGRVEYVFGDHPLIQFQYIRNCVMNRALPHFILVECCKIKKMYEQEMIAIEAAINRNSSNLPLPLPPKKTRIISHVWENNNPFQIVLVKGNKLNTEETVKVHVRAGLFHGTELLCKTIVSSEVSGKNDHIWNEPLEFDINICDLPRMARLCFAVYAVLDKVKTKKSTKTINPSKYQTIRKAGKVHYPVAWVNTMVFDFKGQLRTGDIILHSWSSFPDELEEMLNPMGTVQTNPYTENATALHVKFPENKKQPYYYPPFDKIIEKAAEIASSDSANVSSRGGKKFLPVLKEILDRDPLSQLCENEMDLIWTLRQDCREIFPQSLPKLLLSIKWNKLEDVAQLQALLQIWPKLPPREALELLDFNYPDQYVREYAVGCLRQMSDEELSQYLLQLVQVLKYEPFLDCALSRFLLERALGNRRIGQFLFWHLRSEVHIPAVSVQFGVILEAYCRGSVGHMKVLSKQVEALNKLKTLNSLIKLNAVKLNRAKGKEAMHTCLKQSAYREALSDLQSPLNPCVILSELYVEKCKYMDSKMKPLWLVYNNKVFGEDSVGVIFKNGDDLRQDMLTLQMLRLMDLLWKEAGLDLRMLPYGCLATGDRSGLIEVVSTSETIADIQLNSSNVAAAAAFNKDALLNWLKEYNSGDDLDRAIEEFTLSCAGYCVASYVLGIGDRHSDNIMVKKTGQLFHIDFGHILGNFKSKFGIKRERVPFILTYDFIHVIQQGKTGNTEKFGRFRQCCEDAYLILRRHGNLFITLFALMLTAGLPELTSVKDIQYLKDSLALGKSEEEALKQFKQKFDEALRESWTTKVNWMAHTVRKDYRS
Sequence of PI3Kβ (P27986 whole entry partner, canonical isoform): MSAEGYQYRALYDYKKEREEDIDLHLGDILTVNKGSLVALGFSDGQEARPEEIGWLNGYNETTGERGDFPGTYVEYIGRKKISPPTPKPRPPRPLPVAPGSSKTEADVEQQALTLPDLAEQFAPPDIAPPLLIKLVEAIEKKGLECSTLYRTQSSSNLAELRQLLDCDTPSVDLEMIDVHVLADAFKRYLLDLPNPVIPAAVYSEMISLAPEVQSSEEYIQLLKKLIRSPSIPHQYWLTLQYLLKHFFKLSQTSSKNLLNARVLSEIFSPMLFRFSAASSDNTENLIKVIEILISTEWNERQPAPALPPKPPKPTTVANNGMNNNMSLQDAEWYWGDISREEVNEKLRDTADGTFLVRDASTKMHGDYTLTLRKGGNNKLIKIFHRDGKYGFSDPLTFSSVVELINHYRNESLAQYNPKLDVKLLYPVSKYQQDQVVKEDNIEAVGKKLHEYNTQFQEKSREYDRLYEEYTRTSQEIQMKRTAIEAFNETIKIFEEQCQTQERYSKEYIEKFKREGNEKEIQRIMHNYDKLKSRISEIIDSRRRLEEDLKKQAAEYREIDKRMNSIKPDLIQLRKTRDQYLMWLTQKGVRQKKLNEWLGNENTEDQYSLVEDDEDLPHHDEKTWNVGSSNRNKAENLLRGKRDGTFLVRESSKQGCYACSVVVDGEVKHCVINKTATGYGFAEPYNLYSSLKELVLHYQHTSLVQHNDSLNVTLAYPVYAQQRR

Row | pIC50 | Compound
1 | 7.55 | CC1(c2nc3c(-c4nnc[nH]4)cc(N4CCOCC4)cc3n2-c2ccnc3c(Cl)cccc23)CC1 [Example 4, 4-(1-(8-chloroquinolin-4-yl)-2-(1-methylcyclopropyl)-4-(4H-1,2,4-triazol-3-yl)-1H-benzo[d]imidazol-6-yl)morpholine]
2 | 7.85 | Cc1nc2c(-c3nnc[nH]3)cc(N3CCOCC3)cc2n1-c1ccnc2c(Cl)ccc(F)c12 [Example 87, 4-[3-(8-chloro-5-fluoroquinolin-4-yl)-2-methyl-7-(4H-1,2,4-triazol-3-yl)benzimidazol-5-yl]morpholine]
3 | 7.72 | Cc1ncc(-c2cc(N3CCOCC3)cc3c2nc(C)n3-c2ccnc3c(Cl)cccc23)[nH]1 [Example 201, 4-[3-(8-chloroquinolin-4-yl)-2-methyl-7-(2-methyl-1H-imidazol-5-yl)benzimidazol-5-yl]morpholine]
4 | 8.00 | CCCc1nc2c(-c3ncco3)cc(N3CCOCC3)cc2n1-c1ccnc2c(Cl)cccc12 [Example 227, 4-[3-(8-chloroquinolin-4-yl)-7-(1,3-oxazol-2-yl)-2-propylbenzimidazol-5-yl]morpholine]
5 | 8.15 | Cc1nc2c(-c3nnc[nH]3)cc(N3CCOCC3)cc2n1-c1ccnc2c(F)c(F)ccc12 (atropisomer, axis not shown) [Compound 352, 4-[3-(7,8-difluoroquinolin-4-yl)-2-methyl-7-(4H-1,2,4-triazol-3-yl)benzimidazol-5-yl]morpholine]
6 | 7.85 | Clc1cccc2c(-n3c(-c4ccccn4)nc4c(-c5nnc[nH]5)cc(N5CCOCC5)cc43)ccnc12 [Example 115, 4-[3-(8-chloroquinolin-4-yl)-2-pyridin-2-yl-7-(4H-1,2,4-triazol-3-yl)benzimidazol-5-yl]morpholine]
7 | 7.28 | Cc1nnc(-c2cc(N3CCOCC3)cc3c2nc(C2CCCO2)n3-c2ccnc3c(Cl)cccc23)[nH]1 (stereo not shown) [Example 16, 4-(1-(8-chloroquinolin-4-yl)-4-(5-methyl-4H-1,2,4-triazol-3-yl)-2-(tetrahydrofuran-2-yl)-1H-benzo[d]imidazol-6-yl)morpholine]
8 | 8.15 | Cc1nc2c(-c3nnc(Cl)[nH]3)cc(N3CCOCC3)cc2n1-c1ccnc2c(Cl)ccc(F)c12 [Example 170, 4-(4-(5-chloro-4H-1,2,4-triazol-3-yl)-1-(8-chloro-5-fluoroquinolin-4-yl)-2-methyl-1H-benzo[d]imidazol-6-yl)morpholine]
9 | 7.92 | Cc1csc(-c2cc(N3CCOCC3)cc3c2nc(C)n3-c2ccnc3c(Cl)cccc23)n1 [Example 205, 4-[3-(8-chloroquinolin-4-yl)-2-methyl-7-(4-methyl-1,3-thiazol-2-yl)benzimidazol-5-yl]morpholine]
10 | 8.30 | Cc1nc2c(-c3nnc[nH]3)cc(N3CCOCC3)cc2n1-c1ccnc2c(F)ccc(Cl)c12 (atropisomer, axis not shown) [Compound 344, 4-[3-(5-chloro-8-fluoroquinolin-4-yl)-2-methyl-7-(4H-1,2,4-triazol-3-yl)benzimidazol-5-yl]morpholine]
11 | 7.57 | Cc1nc2c(-c3cc[nH]n3)cc(N3CCOCC3)cc2n1-c1ccnc2c(Cl)cccc12 [Example 262, 4-[3-(8-chloroquinolin-4-yl)-2-methyl-7-(1H-pyrazol-3-yl)benzimidazol-5-yl]morpholine]
12 | 6.64 | Cc1nc[nH]c1-c1cc(N2CCOCC2)cc2c1nc(C)n2-c1ccnc2c(Cl)cccc12 [Example 177, 4-[3-(8-chloroquinolin-4-yl)-2-methyl-7-(4-methyl-1H-imidazol-5-yl)benzimidazol-5-yl]morpholine]

The next lines start with the compound.

Row | Compound | pIC50
13 | CCCc1nc2c(-c3nnc(C)[nH]3)cc(N3CCOCC3)cc2n1-c1ccnc2cc(F)ccc12 [Example 21, 4-(1-(7-fluoroquinolin-4-yl)-4-(5-methyl-4H-1,2,4-triazol-3-yl)-2-propyl-1H-benzo[d]imidazol-6-yl)morpholine] | 6.89
14 | Fc1ccc2c(-n3c(CC4CC4)nc4c(-c5nnc[nH]5)cc(N5CCOCC5)cc43)ccnc2c1Cl [Example 31, 4-(1-(8-chloro-7-fluoroquinolin-4-yl)-2-(cyclopropylmethyl)-4-(4H-1,2,4-triazol-3-yl)-1H-benzo[d]imidazol-6-yl)morpholine] | 8.05
15 | CC(C)Cc1nc2c(-c3cnc(Cl)[nH]3)cc(N3CCOCC3)cc2n1-c1ccnc2c(F)ccc(F)c12 [Example 300, 4-[7-(2-chloro-1H-imidazol-5-yl)-3-(5,8-difluoroquinolin-4-yl)-2-(2-methylpropyl)benzimidazol-5-yl]morpholine] | 7.85
16 | Cc1nc2c(-c3nnc[nH]3)cc(N3CCOCC3)cc2n1-c1c(C2CC2)cnc2ccccc12 [Example 66, 4-[3-(3-cyclopropylquinolin-4-yl)-2-methyl-7-(4H-1,2,4-triazol-3-yl)benzimidazol-5-yl]morpholine] | 7.80
17 | CCCc1nc2c(-c3nnc[nH]3)cc(N3CCOCC3)cc2n1-c1ccnc2c(F)c(F)ccc12 [Example 49, 4-(1-(7,8-difluoroquinolin-4-yl)-2-propyl-4-(4H-1,2,4-triazol-3-yl)-1H-benzo[d]imidazol-6-yl)morpholine] | 7.74
18 | Clc1cccc2c(-n3cnc4c(-c5nnc[nH]5)cc(N5CCOCC5)cc43)ccnc12 [Example 111, 4-[3-(8-chloroquinolin-4-yl)-7-(4H-1,2,4-triazol-3-yl)benzimidazol-5-yl]morpholine] | 8.52
19 | Fc1ccc2c(-n3cnc4c(-c5nnc[nH]5)cc(N5CCOCC5)cc43)ccnc2c1Cl [Example 29, 4-(1-(8-chloro-7-fluoroquinolin-4-yl)-4-(4H-1,2,4-triazol-3-yl)-1H-benzo[d]imidazol-6-yl)morpholine] | 8.15
20 | Fc1cccc2c(-n3cnc4c(-c5cnc(Cl)[nH]5)cc(N5CCOCC5)cc43)ccnc12 [Example 292, 4-[7-(2-chloro-1H-imidazol-5-yl)-3-(8-fluoroquinolin-4-yl)benzimidazol-5-yl]morpholine] | 7.38
21 | Cc1nc2c(-c3n[nH]c(=S)o3)cc(N3CCOCC3)cc2n1-c1ccnc2cc(F)ccc12 [Example 164, 5-(1-(7-fluoroquinolin-4-yl)-2-methyl-6-morpholino-1H-benzo[d]imidazol-4-yl)-1,3,4-oxadiazole-2(3H)-thione] | 6.89
22 | COCCc1nc2c(-c3nnc[nH]3)cc(N3CCOCC3)cc2n1-c1ccnc2c(F)cccc12 [Example 42, 4-(1-(8-fluoroquinolin-4-yl)-2-(2-methoxyethyl)-4-(4H-1,2,4-triazol-3-yl)-1H-benzo[d]imidazol-6-yl)morpholine] | 7.70
23 | Fc1ccc2c(-n3cnc4c(-c5nnc[nH]5)cc(N5CCOCC5)cc43)ccnc2c1 [Example 53, 4-(l-(7-fluoroquinolin-4-yl)-4-(4H-1,2,4-triazol-3-yl)-1H-benzo[d]imidazol-6-yl)morpholine] | 7.82
24 | CCCc1nc2c(-c3nnc(C)[nH]3)cc(N3CCOCC3)cc2n1-c1ccnc2c(Cl)ccc(F)c12 [Example 11, 4-(1-(8-chloro-5-fluoroquinolin-4-yl)-4-(5-methyl-4H-1,2,4-triazol-3-yl)-2-propyl-1H-benzo[d]imidazol-6-yl)morpholine] | 7.38
25 | CCc1nc2c(-c3nnc(C)[nH]3)cc(N3CCOCC3)cc2n1-c1c(Cl)cnc2c(Cl)cccc12 (atropisomer, axis not shown) [Compound 348, 4-[3-(3,8-dichloroquinolin-4-yl)-2-ethyl-7-(5-methyl-4H-1,2,4-triazol-3-yl)benzimidazol-5-yl]morpholine] | 7.89
